Results from patent US20260306491A1, “EGFR INHIBITOR FOR TREATING CANCERS COMPRISING ATYPICAL EGFR MUTATIONS” (ORIC Pharmaceuticals, Inc., priority 2023, published 2026).

Assays:
Experiment in all cases: EGFR kinase activity (AQT0794 peptide, Sox fluorescence)
Type in all cases: biochemical
EGFR_G719C = biological target: T1, EGFR_G719C (Homo sapiens, UniProt P00533, G719C); conditions: 1 mM ATP, 5.0 nM enzyme, room temperature
T1 construct: purchased SignalChem E10-12FG
Method: (§1) Compound I was dissolved in DMSO to generate a 10 mM stock solution. Dosing solutions for biochemical assays were prepared by serial dilution in DMSO followed by dilution in assay buffers as described in the experimental procedures. Stock formulations were stored at −80° C. and dosing solutions were prepared for each experiment immediately prior to use.
(§2) Activity of human recombinant EGFR wildtype and mutant proteins was measured by the phosphorylation of a peptide substate via chelation-enhanced fluorescence using the sulfonamido-oxine (Sox) chromophore detection format. Compound I was solubilized in DMSO. 16-point half log titrations in 100% DMSO were carried out by a Bravo liquid handler (Agilent) in a 384-well polypropylene plate (Greiner Cat. #781201). Using the Bravo liquid handler, intermediate 1:10 dilutions in a 384-well polypropylene plate were created in assay buffer. For the enzymatic reactions, 5 μL from the intermediate compound dilution plate was transferred to a low volume 384 well, black flat-bottom polystyrene microplate (Greiner Cat. #784076). A separate plate was generated for each enzyme. Next, 5 μL of a 4× ATP/AQT0794 working solution was added to the assay plate. Finally, 10 μL of 2× enzyme was added to start the reactions. The plate was sealed with a PerkinElmer TopSeal-A Plus plate seal (Cat. #6050185) and read at excitation (360 nm) and emission (492 nm) in continuous kinetic mode every 2 minutes for 3 hours at room temperature. Reactions were performed in 50 mM HEPES, pH 7.5, 1 mM ATP, 1.0 mM DTT, 0.015% Brij-35, 0.01% BSA, 1.0 mM EGTA, 10 mM MgCl2, 10 μM EGFR peptide substrate probe from AssayQuant (Cat. #AQT0794) plus recombinant EGFR protein (Table 1). The final DMSO concentration was 2.5%.
(§3) Real-time continuous kinetic data were loaded into Dotmatics software where slopes were calculated, converted to % inhibitions and IC50s were generated using the four-parameter non-linear regression curve fit. Reactions lacking enzymes were used as 100% inhibition controls. After addition of recombinant EGFR and its substrates ATP and AQT0794, the activity of EGFR was measured by quantification of the phosphorylation of the AQT0794 peptide substate via chelation-enhanced fluorescence using the sulfonamido-oxine (Sox) chromophore detection format with diminishing signal indicative of inhibition of EGFR activity.

EGFR_G719S = biological target: T2, EGFR_G719S (Homo sapiens, UniProt P00533, G719S); conditions: 1 mM ATP, 1.0 nM enzyme, room temperature
T2 construct: purchased SignalChem E10-12HG
T2 sequence (P00533 25-1210 G719S): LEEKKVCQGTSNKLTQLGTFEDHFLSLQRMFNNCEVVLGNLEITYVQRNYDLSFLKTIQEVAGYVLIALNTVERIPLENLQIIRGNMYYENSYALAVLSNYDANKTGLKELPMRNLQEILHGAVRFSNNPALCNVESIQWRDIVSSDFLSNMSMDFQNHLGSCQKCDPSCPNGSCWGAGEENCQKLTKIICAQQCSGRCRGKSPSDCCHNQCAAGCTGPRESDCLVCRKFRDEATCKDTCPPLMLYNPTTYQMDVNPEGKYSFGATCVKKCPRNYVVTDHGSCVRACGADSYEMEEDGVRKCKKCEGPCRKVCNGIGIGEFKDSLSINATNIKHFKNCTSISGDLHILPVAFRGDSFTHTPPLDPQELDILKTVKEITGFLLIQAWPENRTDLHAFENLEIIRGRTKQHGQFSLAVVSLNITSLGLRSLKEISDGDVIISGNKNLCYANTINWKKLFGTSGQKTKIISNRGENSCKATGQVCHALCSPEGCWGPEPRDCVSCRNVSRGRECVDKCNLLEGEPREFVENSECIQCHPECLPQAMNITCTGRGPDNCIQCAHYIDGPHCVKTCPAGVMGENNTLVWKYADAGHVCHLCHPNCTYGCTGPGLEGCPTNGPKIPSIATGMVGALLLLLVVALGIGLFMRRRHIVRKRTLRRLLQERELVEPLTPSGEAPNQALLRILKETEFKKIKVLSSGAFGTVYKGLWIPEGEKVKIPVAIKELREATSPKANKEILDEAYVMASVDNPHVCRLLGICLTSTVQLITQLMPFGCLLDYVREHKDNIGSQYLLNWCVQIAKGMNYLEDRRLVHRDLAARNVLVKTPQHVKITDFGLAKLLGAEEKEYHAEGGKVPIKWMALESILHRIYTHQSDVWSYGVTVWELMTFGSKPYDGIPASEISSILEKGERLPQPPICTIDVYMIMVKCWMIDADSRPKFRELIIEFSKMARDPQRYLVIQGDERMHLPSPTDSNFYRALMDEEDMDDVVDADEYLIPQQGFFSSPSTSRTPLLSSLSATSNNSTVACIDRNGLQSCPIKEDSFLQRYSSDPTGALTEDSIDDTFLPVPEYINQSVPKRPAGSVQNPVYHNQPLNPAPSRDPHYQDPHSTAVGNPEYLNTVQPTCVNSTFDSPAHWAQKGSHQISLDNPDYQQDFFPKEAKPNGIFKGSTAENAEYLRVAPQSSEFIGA
Method: as §1, §2, §3

EGFR_L718Q = biological target: T3, EGFR_L718Q (Homo sapiens, UniProt P00533, L718Q); conditions: 1 mM ATP, 2.0 nM enzyme, room temperature
T3 construct: purchased SignalChem E10-122G2G
Method: as §1, §2, §3

EGFR_L747S = biological target: T4, EGFR_L747S (Homo sapiens, UniProt P00533, L747S); conditions: 1 mM ATP, 0.5 nM enzyme, room temperature
T4 construct: purchased SignalChem E10-122Y2G
T4 sequence (P00533 25-1210 L747S): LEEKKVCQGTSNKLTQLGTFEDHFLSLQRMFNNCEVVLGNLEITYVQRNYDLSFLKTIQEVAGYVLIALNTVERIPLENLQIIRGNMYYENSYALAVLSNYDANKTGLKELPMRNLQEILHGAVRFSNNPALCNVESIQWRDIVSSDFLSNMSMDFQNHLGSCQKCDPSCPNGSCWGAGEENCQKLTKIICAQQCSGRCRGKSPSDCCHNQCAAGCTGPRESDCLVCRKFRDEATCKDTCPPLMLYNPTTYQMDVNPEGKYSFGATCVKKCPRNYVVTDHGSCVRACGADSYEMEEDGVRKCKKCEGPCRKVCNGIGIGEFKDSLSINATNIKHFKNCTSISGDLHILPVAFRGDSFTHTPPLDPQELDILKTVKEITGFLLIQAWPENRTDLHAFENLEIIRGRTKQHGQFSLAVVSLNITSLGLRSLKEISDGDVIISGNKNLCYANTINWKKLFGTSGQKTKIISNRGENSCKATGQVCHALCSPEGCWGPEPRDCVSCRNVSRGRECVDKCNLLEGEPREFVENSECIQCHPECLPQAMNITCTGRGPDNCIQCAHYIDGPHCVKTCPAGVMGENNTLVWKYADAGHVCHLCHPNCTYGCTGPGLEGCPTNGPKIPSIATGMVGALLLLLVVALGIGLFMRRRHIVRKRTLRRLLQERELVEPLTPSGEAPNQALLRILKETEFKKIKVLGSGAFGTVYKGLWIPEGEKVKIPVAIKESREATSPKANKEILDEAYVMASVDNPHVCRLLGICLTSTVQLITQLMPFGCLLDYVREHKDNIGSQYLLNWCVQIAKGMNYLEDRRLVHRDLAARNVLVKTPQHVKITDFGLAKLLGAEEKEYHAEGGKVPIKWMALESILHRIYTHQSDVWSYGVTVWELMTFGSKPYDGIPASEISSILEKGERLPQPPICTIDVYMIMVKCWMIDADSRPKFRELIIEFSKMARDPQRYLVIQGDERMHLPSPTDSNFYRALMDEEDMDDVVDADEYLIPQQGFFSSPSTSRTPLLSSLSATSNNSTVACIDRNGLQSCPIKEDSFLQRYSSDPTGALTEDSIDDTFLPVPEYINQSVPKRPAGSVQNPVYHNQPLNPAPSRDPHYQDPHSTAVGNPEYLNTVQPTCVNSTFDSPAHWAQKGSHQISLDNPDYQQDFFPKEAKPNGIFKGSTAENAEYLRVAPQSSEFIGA
Method: as §1, §2, §3

EGFR_L792H = biological target: T5, EGFR_L792H (Homo sapiens, UniProt P00533, L792H); conditions: 1 mM ATP, 1.0 nM enzyme, room temperature
T5 construct: purchased SignalChem E10-122J2G
T5 sequence (P00533 25-1210 L792H): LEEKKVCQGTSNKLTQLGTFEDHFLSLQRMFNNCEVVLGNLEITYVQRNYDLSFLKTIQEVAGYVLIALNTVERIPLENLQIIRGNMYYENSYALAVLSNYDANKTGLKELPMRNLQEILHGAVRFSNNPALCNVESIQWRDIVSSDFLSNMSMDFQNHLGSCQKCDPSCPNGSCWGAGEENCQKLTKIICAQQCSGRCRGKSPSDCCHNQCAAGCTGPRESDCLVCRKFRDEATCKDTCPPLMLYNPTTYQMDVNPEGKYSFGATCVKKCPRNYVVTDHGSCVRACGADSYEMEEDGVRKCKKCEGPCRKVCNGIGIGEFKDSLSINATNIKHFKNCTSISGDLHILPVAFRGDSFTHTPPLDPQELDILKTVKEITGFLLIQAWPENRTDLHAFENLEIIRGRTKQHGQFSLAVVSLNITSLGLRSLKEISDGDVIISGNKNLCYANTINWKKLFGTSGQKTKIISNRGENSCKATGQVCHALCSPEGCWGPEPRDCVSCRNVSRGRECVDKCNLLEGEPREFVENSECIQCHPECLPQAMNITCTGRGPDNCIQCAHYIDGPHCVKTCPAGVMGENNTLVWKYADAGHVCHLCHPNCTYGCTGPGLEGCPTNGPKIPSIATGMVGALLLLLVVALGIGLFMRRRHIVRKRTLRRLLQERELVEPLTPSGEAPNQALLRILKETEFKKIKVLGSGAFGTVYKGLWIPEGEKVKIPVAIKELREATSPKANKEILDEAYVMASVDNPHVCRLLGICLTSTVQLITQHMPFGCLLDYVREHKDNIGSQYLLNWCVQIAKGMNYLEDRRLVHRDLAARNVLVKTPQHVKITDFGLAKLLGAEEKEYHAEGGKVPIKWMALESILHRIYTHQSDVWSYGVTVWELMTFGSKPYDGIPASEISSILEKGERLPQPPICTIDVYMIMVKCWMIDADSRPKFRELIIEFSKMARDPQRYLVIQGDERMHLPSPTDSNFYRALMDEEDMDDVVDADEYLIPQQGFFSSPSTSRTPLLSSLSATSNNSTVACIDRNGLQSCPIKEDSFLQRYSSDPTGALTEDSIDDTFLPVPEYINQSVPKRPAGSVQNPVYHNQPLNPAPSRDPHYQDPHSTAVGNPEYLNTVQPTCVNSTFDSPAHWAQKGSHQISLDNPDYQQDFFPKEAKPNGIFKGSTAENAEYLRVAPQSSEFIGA
Method: as §1, §2, §3

EGFR_d746-750 G724S = biological target: T6, EGFR_d746-750 G724S (Homo sapiens, UniProt P00533, DEL746-750/G724S); conditions: 1 mM ATP, 2.0 nM enzyme, room temperature
T6 construct: purchased SignalChem E10-122D3G
T6 sequence (P00533 with tags, fused parts or gaps G724S/DEL746-750): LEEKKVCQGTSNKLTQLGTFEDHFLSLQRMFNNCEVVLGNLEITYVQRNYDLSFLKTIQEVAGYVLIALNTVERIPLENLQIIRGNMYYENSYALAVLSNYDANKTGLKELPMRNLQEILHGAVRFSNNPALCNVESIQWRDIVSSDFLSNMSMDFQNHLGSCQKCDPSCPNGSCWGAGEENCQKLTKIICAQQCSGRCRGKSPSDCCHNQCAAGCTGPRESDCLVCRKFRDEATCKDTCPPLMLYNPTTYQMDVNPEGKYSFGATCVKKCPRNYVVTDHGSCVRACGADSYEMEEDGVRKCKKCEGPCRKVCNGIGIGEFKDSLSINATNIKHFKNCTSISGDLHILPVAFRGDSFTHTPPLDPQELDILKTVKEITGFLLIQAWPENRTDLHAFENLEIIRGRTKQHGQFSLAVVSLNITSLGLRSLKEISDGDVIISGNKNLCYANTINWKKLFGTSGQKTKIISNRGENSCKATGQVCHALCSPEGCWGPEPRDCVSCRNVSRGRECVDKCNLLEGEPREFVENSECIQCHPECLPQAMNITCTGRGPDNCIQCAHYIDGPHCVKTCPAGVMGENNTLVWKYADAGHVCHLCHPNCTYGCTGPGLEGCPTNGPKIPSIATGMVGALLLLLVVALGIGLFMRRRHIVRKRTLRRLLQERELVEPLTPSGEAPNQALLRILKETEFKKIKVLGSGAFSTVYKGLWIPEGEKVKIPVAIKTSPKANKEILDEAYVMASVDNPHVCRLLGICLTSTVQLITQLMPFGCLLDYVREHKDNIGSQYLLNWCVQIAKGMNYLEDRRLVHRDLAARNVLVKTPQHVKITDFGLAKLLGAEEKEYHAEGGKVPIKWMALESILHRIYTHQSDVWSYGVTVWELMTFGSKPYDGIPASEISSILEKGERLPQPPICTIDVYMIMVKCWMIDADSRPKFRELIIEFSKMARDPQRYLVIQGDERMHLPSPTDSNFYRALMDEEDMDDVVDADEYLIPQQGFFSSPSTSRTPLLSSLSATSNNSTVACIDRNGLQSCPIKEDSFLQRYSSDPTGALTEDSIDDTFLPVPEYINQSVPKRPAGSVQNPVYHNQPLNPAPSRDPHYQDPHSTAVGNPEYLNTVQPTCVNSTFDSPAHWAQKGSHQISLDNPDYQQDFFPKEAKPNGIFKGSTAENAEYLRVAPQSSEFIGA
Method: as §1, §2, §3

C=CC(=O)Nc1cc(Nc2cc(N3OCC[C@@H]3c3cc(F)cc(F)c3)ncn2)c(OC)cc1N1CCC(N2CCN(C3CC3)CC2)CC1 [Compound I, N-[2-[4-(4-cyclopropyl-1-piperazinyl)-1-piperidinyl]-5-[[6-[(3R)-3-(3,5-difluorophenyl)-2-isoxazolidinyl]-4-pyrimidinyl]amino]-4-methoxyphenyl]-2-propenamide] showed an IC50 (EGFR_G719C) of 0.6 nM, an IC50 (EGFR_G719S) of 0.9 nM and an IC50 (EGFR_L718Q) of 3.7 nM. The IC50 (EGFR_L747S) was 1.5 nM, the IC50 (EGFR_L792H) was 16 nM and the IC50 (EGFR_d746-750 G724S) was 3.5 nM.
